Data reported in patent US20260166182A1, “CYANINE-BASED FLUOROPHORES” (The General Hospital Corporation, priority 2022, published 2026).

Assays:
[1] = system: pancreatic ductal adenocarcinoma (PDAC; Pan02 cell); experiment: NIR-II fluorescence imaging of subcutaneous PDAC tumor-bearing C57BL/6 mice; type: in vivo, mouse
Text: General NIR-II fluorescence imaging: A 640×512-pixel InGaAs camera (Ninox640, Raptor Photonics) and macro zoom lens (0-10×; Navitar Zoom 7000 with SWIR coating) along with 900, 1070, 1100, and 1200 nm long-pass (LP) filters from either Thorlab or Edmund optics were used to collect the NIR-II signal. InGaAs camera played a role as an open-air imaging system along with the support of the FLARE system. An 808 nm fiber-coupled diode laser ([…] at the sample) was used as an excitation source. Data acquisition was done using in-house developed software. The mice fur on the region of interest was shaved prior to imaging using a clipper and removed completely using a depilatory cream. 100 μL of SH1 in 5 w/v % BSA saline ([…]) was injected through the tail vein. Mice were imaged with intact skin using InGaAs camera. At least 3 mice were analyzed for each sample. […]
Statistical analysis: The fluorescence and background intensities of a region of interest over each tissue were quantified using customized imaging software and ImageJ v1.48 (National Institutes of Health, Bethesda, MD). The signal-to-background ratio (SBR) was calculated as SBR=fluorescence/background, where background was the fluorescence intensity of muscle. […] The differences among groups were determined using one-way ANOVA analysis to assess the statistical differences among more than two groups. […]

[2] = Serum protein binding kinetics (size exclusion column); type: in vitro ADME; settings: bovine, FBS/PBS 50/50 v/v % (serum proteins, mostly albumin), pH 7.4; within 30 min, FBS/PBS 50/50, 37° C.
Method: FIG. 15 Reaction kinetics of SH1, ICG, and IR-780 to serum proteins, mostly albumin. 50 nmol of each dye was mixed with 1 ml of FBS/PBS (pH 7.4) 50/50 v/v %, incubated at 37° C., and analyzed using a BioResolve size exclusion column (200 Å, 2.5 μm, 7.8×300 mm). The binding percentage was calculated by dividing by absorbance of bound dye at 24 h assuming the dyes can bind in maximum capacity in the protein at 24 h.

[3] = system: LLC tumor; experiment: Quantitative 3D FLECT/CT tumor accumulation; type: in vivo, mouse; settings: from 24 h to 48 h post-injection
Method: Quantitative analysis using InSyTe FLECT/CT: 3D fluorescence images were acquired with the TriFoil Imaging InSyTe FLECT/CT, a commercial preclinical imaging system with full 3D fluorescence tomography imaging capability and an inline CT system. Animals were anesthetized with isoflurane during scans. FLECT scans were performed with 116 projections per slice, 780 nm laser for excitation, and 853/45 bandpass fluorescence emission filter. After data collection, fluorescence images were reconstructed using a proprietary FLECT reconstruction engine. CT scans were performed with 360 projections per slice, 35 kV tube voltage, 950 uA tube current, and 100 ms exposure. CT images were reconstructed using the COBRA filtered back-projection algorithm (Exxim, Computing Corporation, Pleasanton, CA). Quantitative analysis of 3D fluorescence images was performed using the VivoQuant 2020 image analysis software (Invicro, Boston, MA). FLECT and CT images were co-registered in VivoQuant 2020. Volumes-of-interest (VOI) were segmented via intensity thresholding, where the threshold limits were set to the local full-width-half-maximum (FWHM) intensity value for the lower threshold bound and local maximum intensity value for the upper threshold bound.

[4] = system: LLC cells; experiment: Cytotoxicity study (CCK-8 cell proliferation); type: cell-based; settings: 24 h incubation
Method: Cytotoxicity study: 200 μL of cell suspension was added into a 96-well plate to have 5000 cells in each well. The plate was pre-incubated for 24 hours in a humidified incubator for cells to attach on the bottom of the plate. Stock solutions of SH1, IR-780, and DMSO were premixed with the cell culture media (DMEM containing 10% FBS) to 50 μM, and premixed solutions were filtered using a syringe filter ([…]), and then were diluted to final concentrations of 1-25 μM. After cells reached the desired density (40-50% confluency), the existing media was removed and exchanged with the above solutions at certain concentrations. The plate was further incubated for 24 h. The cell proliferation was determined using a CCK-8 Kit.

[5] = In vivo biodistribution and pharmacokinetics in CD-1 mice; set-up: species or system mouse
Text: In vivo biodistribution and pharmacokinetics of SH dyes: Animals were housed in an AAALAC-certified facility and were studied under the supervision of MGH IACUC in accordance with the approved institutional protocol. Six-week-old CD-1 mice (male; 25-30 g) were purchased from Charles River Laboratories (Wilmington, MA). Mice were maintained under anesthesia with isoflurane and oxygen during the preparation prior to injection. The end of the tail was cut for blood collection. Before injection, blood was sampled in capillary tubes (Fisher Scientific, Pittsburgh, PA) as a reference. […] Mice were imaged using the in-house built NIR-II imaging system. After 24 h post-injection, mice were sacrificed to image organs. At least 3 mice were analyzed for each sample. Results were presented as an exponential decay curve using Prism software version 9.0.2 (GraphPad, San Diego, CA).

CCCCN1/C(=C/C=C2\CCCC(/C=C/C3=[N+](CCCC)c4ccc(Cl)cc4C3(C)C)=C2Cl)C(C)(C)c2cc(Cl)ccc21 [SH1, 1-butyl-2-((E)-2-((E)-3-(2-((E)-1-butyl-5-chloro-3,3-dimethylindolin-2-ylidene)ethylidene)-2-chlorocyclohex-1-en-1-yl)vinyl)-5-chloro-3,3-dimethyl-3H-indol-1-ium]
TBR ([1]; PDAC less than 5 mm in size, compared to healthy tissue): ~9.5
onset of signals in the cancerous region ([1]; intravenous, until 24 h post-injection): did not appear at early time points
fraction unbound at 30 min, 50 μM [2]: ~0.65
increase of % ID in cancer area [3]: more than 2 fold
concentration that did not affect cell proliferation [4]: up to 10 μM
pharmacokinetic model ([5]; 1 μmol/kg intravenous): one-compartment model
time to complete distribution ([5]; 1 μmol/kg intravenous): ≤ 24 h
organ distribution ([5]; 24 h post-injection): major distribution in the liver and spleen
half-life ([5]; male, CD-1, mouse, whole blood, 1 umol/kg, 1 μmol/kg intravenous, read-out: elimination blood half-life t½ (converted)): 5.39 ± 1.53 h
